Data from US9504669B2, “Spliceostatin analogs and methods for their preparation” (PFIZER INC., priority 2012, dated 2016).
Counter-ions that a name gives are not always drawn.

How the values were obtained:
Assay type in all cases: cell-based
Details in all cases: free compounds (natural products and synthetic analogs), cell viability 96 hours after treatment
[1] = system: N87 (gastric cancer) cells; test: In vitro cell assay (MTS cell viability), N87
Method: (§1) Target expressing (BT474 (breast cancer), N87 (gastric cancer), HCC1954 (breast cancer), MDA-MB-361-DYT2 (breast cancer)) or non-expressing (MDA-MB-468) cells were seeded in 96-well cell culture plates for 24 hours before treatment. Cells were treated with 3-fold serially diluted antibody-drug conjugates or free compounds (i.e., no antibody conjugated to the drug) in duplicate at 10 concentrations. Cell viability was determined by CellTiter 96® AQueous One Solution Cell Proliferation MTS Assay (Promega, Madison Wis.) 96 hours after treatment. Relative cell viability was determined as percentage of untreated control. IC50 values were calculated using a four parameter logistic model #203 with XLfit v4.2 (IDBS, Guildford, Surry, UK). The potency ranged upward from 0.0002 nm. Similar procedures and techniques were employed.

[2] = system: BT474 (breast cancer) cells; test: In vitro cell assay (MTS cell viability), BT474
Method: as §1

[3] = system: MDA-MB-361-DYT2 (breast cancer) cells; test: In vitro cell assay (MTS cell viability), MDA-MB-361-DYT2
Method: as §1

Structure (SMILES) | IC50 [1] [nM] | IC50 [2] [nM] | IC50 [3] [nM] | IC50 ([1]; 96 h) [nM] | IC50 ([2]; Homo sapiens, BT-474) [nM] | IC50 ([3]; 96 h) [nM]
CC(=O)O[C@@H](C)/C=C\C(=O)N[C@@H]1C[C@H](C)[C@H](C/C=C(C)/C=C/[C@H]2O[C@H](CC(=O)NCc3ccc(S(=O)(=O)N(C)C)cc3)C[C@@]3(CO3)[C@@H]2O)O[C@@H]1C [#B93, (2S,3Z)-5-{[(2R,3R,5S,6S)-6-{(2E,4E)-5-[(3R,4R,5R,7S)-7-(2-{[4-(dimethylsulfamoyl)benzyl]amino}-2-oxoethyl)-4-hydroxy-1,6-dioxaspiro[2.5]oct-5-yl]-3-methylpenta-2,4-dien-1-yl}-2,5-dimethyltetrahydro-2H-pyran-3-yl[amino}-5-oxopent-3-en-2-yl acetate] | 0.647 | 2.27 | 3.96 |  |  | 
CC(/C=C/[C@@H]1C[C@]2(CO2)C[C@@H](CC(N)=O)O1)=C\C[C@@H]1O[C@H](C)[C@H](NC(=O)/C=C\[C@H](C)OC(=O)N2CCCCC2)C[C@@H]1C [#B40, (2S,3Z)-5-{[(2R,3R,5S,6S)-6-{(2E,4E)-5-[(3S,5S,7S)-7-(2-amino-2-oxoethyl)-1,6-dioxaspiro[2.5]oct-5-yl]-3-methylpenta-2,4-dien-1-yl}-2,5-dimethyltetrahydro-2H-pyran-3-yl]amino}-5-oxopent-3-en-2-yl piperidine-1-carboxylate] |  |  |  | 6.76 | 1.86 | 5.84
CC(=O)O[C@@H](C)/C=C\C(=O)N[C@@H]1C[C@H](C)[C@H](C/C=C(C)/C=C/[C@H]2O[C@H](CN)C[C@@]3(CO3)[C@@H]2O)O[C@@H]1C [#B147, (2S,3Z)-5-{[(2R,3R,5S,6S)-6-{(2E,4E)-5-[(3R,4R,5R,7S)-7-(aminomethyl)-4-hydroxy-1,6-dioxaspiro[2.5]oct-5-yl]-3-methylpenta-2,4-dien-1-yl}-2,5-dimethyltetrahydro-2H-pyran-3-yl]amino}-5-oxopent-3-en-2-yl acetate, acetate salt] |  |  |  | 9.92 | 6.81 | 17.2
CC(=O)O[C@@H](C)/C=C\C(=O)N[C@@H]1C[C@H](C)[C@H](C/C=C(C)/C=C/[C@@H]2C[C@]3(CO3)C[C@@](C)(O)O2)O[C@@H]1C [#NP12, (2S,3Z)-5-{[(2R,3R,5S,6S)-6-{(2E,4E)-5-[(3R,5S,7S)-7-hydroxy-7-methyl-1,6-dioxaspiro[2.5]oct-5-yl]-3-methylpenta-2,4-dien-1-yl}-2,5-dimethyltetrahydro-2H-pyran-3-yl]amino}-5-oxopent-3-en-2-yl acetate] |  |  |  | 13.8 | 5.02 | 4.91
CSCCN(C)C(=O)C[C@@H]1C[C@@]2(CO2)[C@H](O)[C@@H](/C=C/C(C)=C/C[C@@H]2O[C@H](C)[C@H](NC(=O)/C=C\[C@H](C)OC(C)=O)C[C@@H]2C)O1 [#B82, (2S,3Z)-5-{[(2R,3R,5S,6S)-6-{(2E,4E)-5-[(3R,4R,5R,7S)-4-hydroxy-7-(2-{methyl[2-(methylsulfanyl)ethyl]amino}-2-oxoethyl)-1,6-dioxaspiro[2.5]oct-5-yl]-3-methylpenta-2,4-dien-1-yl}-2,5-dimethyltetrahydro-2H-pyran-3-yl]amino}-5-oxopent-3-en-2-yl acetate] |  |  |  | 0.12 | 0.288 | 0.251
CC(=O)O[C@@H](C)/C=C\C(=O)N[C@@H]1C[C@H](C)[C@H](C/C=C(C)/C=C/[C@H]2O[C@H](CC(=O)NCc3ccc(N)cc3F)C[C@@]3(CO3)[C@@H]2O)O[C@@H]1C [#B84, (2S,3Z)-5-{[(2R,3R,5S,6S)-6-{(2E,4E)-5-[(3R,4R,5R,7S)-7-{2-[(4-amino-2-fluorobenzyl)amino]-2-oxoethyl}-4-hydroxy-1,6-dioxaspiro[2.5]oct-5-yl]-3-methylpenta-2,4-dien-1-yl}-2,5-dimethyltetrahydro-2H-pyran-3-yl]amino}-5-oxopent-3-en-2-yl acetate] |  |  |  | 2.54 | 2.53 | 8.27
CC(=O)O[C@@H](C)/C=C\C(=O)N[C@@H]1C[C@H](C)[C@H](C/C=C(C)/C=C/[C@@H]2C[C@]3(CO3)C[C@@H](CC(=O)NN)O2)O[C@@H]1C [#B7, (2S,3Z)-5-{[(2R,3R,5S,6S)-6-{(2E,4E)-5-[(3S,5S,7S)-7-(2-hydrazinyl-2-oxoethyl)-1,6-dioxaspiro[2.5]oct-5-yl]-3-methylpenta-2,4-dien-1-yl}-2,5-dimethyltetrahydro-2H-pyran-3-yl]amino}-5-oxopent-3-en-2-yl acetate] |  |  |  | 0.344 | 1.12 | 1.88
CC(/C=C/[C@@H]1C[C@]2(CO2)C[C@@H](CC(N)=O)O1)=C\C[C@@H]1O[C@H](C)[C@H](NC(=O)/C=C\[C@H](C)OC(=O)N2CCNCC2)C[C@@H]1C [#B136, (2S,3Z)-5-{[(2R,3R,5S,6S)-6-{(2E,4E)-5-[(3S,5S,7S)-7-(2-amino-2-oxoethyl)-1,6-dioxaspiro[2.5]oct-5-yl]-3-methylpenta-2,4-dien-1-yl}-2,5-dimethyltetrahydro-2H-pyran-3-yl]amino}-5-oxopent-3-en-2-yl piperazine-1-carboxylate, acetate salt] |  |  |  | 90.1 | 25.5 | > 100
CC(=O)O[C@@H](C)/C=C\C(=O)N[C@@H]1C[C@H](C)[C@H](C/C=C(C)/C=C/[C@@H]2C[C@]3(CO3)C[C@@H](CC(=O)NO)O2)O[C@@H]1C [#B22, (2S,3Z)-5-({(2R,3R,5S,6S)-6-[(2E,4E)-5-{(3S,5S,7S)-7-[2-(hydroxyamino)-2-oxoethyl]-1,6-dioxaspiro[2.5]oct-5-yl}-3-methylpenta-2,4-dien-1-yl]-2,5-dimethyltetrahydro-2H-pyran-3-yl}amino)-5-oxopent-3-en-2-yl acetate] |  |  |  | 4.23 | 1.76 | 7.46
CC(=O)O[C@@H](C)/C=C\C(=O)N[C@@H]1C[C@H](C)[C@H](C/C=C(C)/C=C/[C@H]2O[C@H](CC(=O)NCc3ccc(N)c(F)c3)C[C@@]3(CO3)[C@@H]2O)O[C@@H]1C [#B85, (2S,3Z)-5-{[(2R,3R,5S,6S)-6-{(2E,4E)-5-[(3R,4R,5R,7S)-7-{2-[(4-amino-3-fluorobenzyl)amino]-2-oxoethyl}-4-hydroxy-1,6-dioxaspiro[2.5]oct-5-yl]-3-methylpenta-2,4-dien-1-yl}-2,5-dimethyltetrahydro-2H-pyran-3-yl]amino}-5-oxopent-3-en-2-yl acetate] |  |  |  | 1.56 | 1.47 | 5.5
CC(=O)O[C@@H](C)/C=C\C(=O)N[C@@H]1C[C@H](C)[C@H](C/C=C(C)/C=C/[C@H]2O[C@H](CC(=O)N3CCNCC3)C[C@@]3(CO3)[C@@H]2O)O[C@@H]1C [#B12, (2S,3Z)-5-({(2R,3R,5S,6S)-6-[(2E,4E)-5-{(3R,4R,5R,7S)-4-hydroxy-7-[2-oxo-2-(piperazin-1-yl)ethyl]-1,6-dioxaspiro[2.5]oct-5-yl}-3-methylpenta-2,4-dien-1-yl]-2,5-dimethyltetrahydro-2H-pyran-3-yl}amino)-5-oxopent-3-en-2-yl acetate, acetate salt] |  |  |  | 54.6 | 55.5 | 87.8
CNS(=O)(=O)c1ccc(CNC(=O)C[C@@H]2C[C@@]3(CO3)[C@H](O)[C@@H](/C=C/C(C)=C/C[C@@H]3O[C@H](C)[C@H](NC(=O)/C=C\[C@H](C)OC(C)=O)C[C@@H]3C)O2)cc1 [#B94, (2S,3Z)-5-{[(2R,3R,5S,6S)-6-{(2E,4E)-5-[(3R,4R,5R,7S)-4-hydroxy-7-(2-{[4-(methylsulfamoyl)benzyl]amino}-2-oxoethyl)-1,6-dioxaspiro[2.5]oct-5-yl]-3-methylpenta-2,4-dien-1-yl}-2,5-dimethyltetrahydro-2H-pyran-3-yl]amino}-5-oxopent-3-en-2-yl acetate] |  |  |  | 4.9 | 18.6 | 37.4
CC(=O)O[C@@H](C)/C=C\C(=O)N[C@@H]1C[C@H](C)[C@H](C/C=C(C)/C=C/[C@H]2O[C@H](CC(N)=O)C[C@@]3(CO3)[C@@H]2O)O[C@@H]1C [#B9, (2S,3Z)-5-{[(2R,3R,5S,6S)-6-{(2E,4E)-5-[(3R,4R,5R,7S)-7-(2-amino-2-oxoethyl)-4-hydroxy-1,6-dioxaspiro[2.5]oct-5-yl]-3-methylpenta-2,4-dien-1-yl}-2,5-dimethyltetrahydro-2H-pyran-3-yl]amino}-5-oxopent-3-en-2-yl acetate] |  |  |  | 1.34 | 3.26 | 5.26
CC(/C=C/[C@@H]1C[C@]2(CO2)C[C@@H](CC(N)=O)O1)=C\C[C@@H]1O[C@H](C)[C@H](NC(=O)/C=C\[C@H](C)O)C[C@@H]1C [#B39, (2Z,4S)—N-[(2R,3R,5S,6S)-6-{(2E,4E)-5-[(3S,5S,7S)-7-(2-amino-2-oxoethyl)-1,6-dioxaspiro[2.5]oct-5-yl]-3-methylpenta-2,4-dien-1-yl}-2,5-dimethyltetrahydro-2H-pyran-3-yl]-4-hydroxypent-2-enamide] |  |  |  | 4.65 | 3.4 | 7.67
CC(=O)O[C@@H](C)/C=C\C(=O)N[C@@H]1C[C@H](C)[C@H](C/C=C(C)/C=C/[C@H]2O[C@H](CC(=O)N[C@H]3CC[C@H](O)CC3)C[C@@]3(CO3)[C@@H]2O)O[C@@H]1C [#B141, (2S,3Z)-5-{[(2R,3R,5S,6S)-6-{(2E,4E)-5-[(3R,4R,5R,7S)-4-hydroxy-7-{2-[(trans-4-hydroxycyclohexyl)amino]-2-oxoethyl}-1,6-dioxaspiro[2.5]oct-5-yl]-3-methylpenta-2,4-dien-1-yl}-2,5-dimethyltetrahydro-2H-pyran-3-yl]amino}-5-oxopent-3-en-2-yl acetate] |  |  |  | 11 | 10.9 | 12.8
